Laboratory results taken from patent US7598234B2, “Steroid derived antibiotics” (Brigham Young University, priority 1998, dated 2009).
Converted amounts (≈) assume the structure as drawn.

How the values were obtained:
[1] = test system: Pseudomonas aeruginosa ATCC 27853; test: Growth inhibition and FIC with rifampicin, Pseudomonas aeruginosa ATCC 27853; format: cell-based; settings: Table 13, Pseudomonas aeruginosa ATCC 27853^b; for FIC: rifampicin (by order); for concentration required to inhibit bacterial growth with antibiotic: rifampicin (by order) at 0.5, 1.0 or 3.0 μg/mL
Experimental: (§1) Alternatively, “fractional inhibitory concentration (FIC)” is also useful for determination of synergy between the compounds of the invention, or the compounds in combination with known antibiotics. FICs can be performed by checkerboard titrations of compounds in one dimension of a microtiter plate, and of antibiotics in the other dimension, for example. The FIC is calculated by looking at the impact of one antibiotic on the MIC of the other and vice versa. […] Preferably, an FIC of less than 0.5 is obtained for synergism. As used herein, FIC can be determined as follows:
(§2) Aliquots of 1 mL of the suspension were added to test tubes containing 1 mL TSB and incrementally varied concentrations of cholic acid derivatives and/or erythromycin or novobiocin. In the sensitization experiments, erythromycin or novobiocin were added 15 minutes later than the cholic acid derivatives. The samples were subjected to stationary incubation at 37° C. for 24 hours. Sample turbidity was determined by measuring absorption at 760 nm (HP 8453 UV-Visible Chemstation, Hewlett Packard). Additionally, an alliquot from each of the samples showing no measurable turbidity was subcultured on TSA plates (alliquots were diluted to provide fewer than 300 CFU). Colonies that grew on the subculture after overnight incubation were counted and the number of CFU/mL in the samples were calculated. The calculated values were compared to the number of CFU/mL in the original inoculum.
(§3) To measure permeabilization, the FIC values for compounds 1, 2, 5, 106, 10, 112, 133, and 134 with erythromycin, novobiocin, and rifampicin were determined. Concentrations of 0.5, 1.0 or 3.0 μg/mL of these antibiotics were used, and the concentrations of the cholic acid derivatives required to inhibit bacterial growth of Gram-negative strains were determined.

[2] = test system: Salmonella typhimurium ATCC 14028; test: MIC and MBC measurement with Salmonella typhimurium ATCC 14028; format: cell-based; settings: Table 10
Procedure, shortened: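 Inocula mixed 1:1 with TSB containing graded concentrations of cholic acid derivatives, alone or with erythromycin or novobiocin added 15 min later. After static incubation for 24 h at 37 °C, turbidity read at 760 nm; non-turbid samples subcultured on TSA and CFU/mL compared with the starting inoculum.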

[3] = test system: Staphylococcus aureus ATCC 25923; test: MIC and MBC measurement with Staphylococcus aureus ATCC 25923; format: cell-based; settings: Table 10; Staphylococcus aureus ATCC 25923
Procedure, shortened: (§4)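 Bacteria incubated statically 24 h at 37 °C in TSB with graded compound concentrations (erythromycin or novobiocin added 15 min later in sensitization runs). MIC from turbidity at 760 nm; MBC by subculturing clear samples on TSA and comparing CFU/mL to inoculum.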

[4] = test system: Salmonella typhimurium ATCC 14028; test: Growth inhibition and FIC with rifampicin, Salmonella typhimurium ATCC 14028; format: cell-based; settings: Table 13, Salmonella typhimurium ATCC 14028^b; for FIC: rifampicin (by order); for concentration required to inhibit bacterial growth with antibiotic: rifampicin (by order) at 0.5, 1.0 or 3.0 μg/mL
Experimental: as §1, §2, §3

E. coli (ATCC 10798) = test: Sensitization to novobiocin (concentration lowering the MIC of novobiocin), E. coli (ATCC 10798); format: cell-based, Escherichia coli
[5] = test system: Pseudomonas aeruginosa (ATCC 27853); test: Sensitization to novobiocin, Pseudomonas aeruginosa (ATCC 27853); format: cell-based; settings: for FIC / concentration required to inhibit bacterial growth with antibiotic: Table 12, Pseudomonas aeruginosa ATCC 27853; for FIC: novobiocin (by order); for concentration required to inhibit bacterial growth with antibiotic: novobiocin (by order) at 0.5, 1.0 or 3.0 μg/mL
Procedure, shortened: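 Tube checkerboard in TSB: cholic acid derivatives added, then erythromycin or novobiocin 15 min later, antibiotics at 0.5, 1.0 or 3.0 μg/mL; stationary 37 °C, 24 h. Turbidity read at 760 nm; clear samples subcultured on TSA for CFU counts versus inoculum; FIC derived for synergy.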

[6] = test system: Klebsiella pneumonia ATCC 13883; test: Growth inhibition and FIC with rifampicin, Klebsiella pneumoniae ATCC 13883; format: cell-based; settings: for FIC: Table 13, rifampicin (by order); for concentration required to inhibit bacterial growth with antibiotic: Table 13, rifampicin (by order) at 0.5, 1.0 or 3.0 μg/mL
Experimental: as §1, §2, §3

[7] = test system: Candida albicans ATCC 90028; test: MIC and MBC measurement with Candida albicans ATCC 90028; format: cell-based; settings: Table 10
Text: General: Microorganisms. Reference strains were purchased from the American Type Culture Collection (Rockville, Md.) or Bactrol disks from Difeo Laboratories (Detroit, Mich.). The following specific ATCC strains were used: 10798 Escherichia coli, 25922 Escherichia coli, 13883 Klebsiella pneumoniae, 27853 Pseudomonas aeruginosa, 14028 Salmonella typhimurium, 29212 Enterococcus faecalis, 25923 Staphylococcus aureus, 19615 Streptococcus pyogenes, and 90028 Candida albicans. Bacterial strains were maintained on Mueller-Hinton agar plates, and Candida albicans was maintained on Sabouraud Dextrose agar plates.
Tryptic soy broth (TSB) was made by dissolving 27.5 grams of tryptic soy broth without dextrose (DIFCO Laboratories) in 1 liter of deionized water and sterilizing at 121° C. for 15 minutes. Solid agar (TSA) plates were made by dissolving 6.4 grams of tryptic soy broth and 12 grams of agar (purified grade, Fischer Scientific) in 800 mL of deionized water and sterilizing at 121° C. for 20 minutes. Aliquots (20 mL) of the homogeneous solution were then poured in sterile plastic petri dishes (100×15 mm, Fisher Scientific). Solutions of compounds were made by dissolving the HCl salt of the respective compound into an appropriate amount of deionized and sterilized water followed by microfiltration.
as §2

E. coli (ATCC 25922) = test: MIC and MBC measurement with E. coli (ATCC 25922); format: cell-based, Escherichia coli
Procedure, shortened: as §4

[8] = test system: Salmonella typhimurium ATCC 14028; test: Growth inhibition and FIC with novobiocin, Salmonella typhimurium ATCC 14028; format: cell-based; settings: for FIC: Table 12, novobiocin (by order); for concentration required to inhibit bacterial growth with antibiotic: Table 12, novobiocin (by order) at 0.5, 1.0 or 3.0 μg/mL
Experimental: as §1, §2, §3

[9] = Table 10, Escherichia coli ATCC 25922
[10] = Table 9, Escherichia coli (ATCC 10798)

| SMILES | FIC [1] | concentration required to inhibit bacterial growth with antibiotic [1] [µg/mL] | MBC [2] [mg/L] | MIC [2] [mg/L] | MBC [3] [mg/L] | MIC [3] [mg/L] | FIC [4] | concentration required to inhibit bacterial growth with antibiotic [4] [µg/mL] | FIC [5] | concentration required to inhibit bacterial growth with antibiotic [5] [µg/mL] | FIC [6] | concentration required to inhibit bacterial growth with antibiotic [6] [µg/mL] | MBC [7] [mg/L] | MIC [7] [mg/L] | MBC (E. coli (ATCC 25922); [9]) [mg/L] | MIC (E. coli (ATCC 25922); [9]) [mg/L] | FIC [8] | concentration required to inhibit bacterial growth with antibiotic [8] [µg/mL] | other results |
| --- | --- | --- | --- | --- | --- | --- | --- | --- | --- | --- | --- | --- | --- | --- | --- | --- | --- | --- | --- |
| C[C@H](CCCN(C)Cc1ccccc1)[C@H]1CC[C@H]2[C@@H]3[C@H](OCCN)C[C@@H]4C[C@H](OCCN)CC[C@]4(C)[C@H]3C[C@H](OCCN)[C@]12C [Compound 1] | 0.096 | 1.5 | >25 | 21 (≈ 33.5 µM) | 5.7 (≈ 9.09 µM) | 3.1 (≈ 4.94 µM) | 0.089 | 0.84 | 0.16 | 3.9 | 0.043 | 0.40 | >50 | 49 (≈ 78.2 µM) | 22 (≈ 35.1 µM) | 22 (≈ 35.1 µM) | 0.22 | 4.4 | MIC: concentration required to lower the MIC of novobiocin from >500 μg/mL to 1 μg/mL (E. coli (ATCC 10798); Table 3, E. coli (ATCC 10798)): 20 mg/L; MBC (with novobiocin) (E. coli (ATCC 10798); Table 3, E. coli (ATCC 10798), novobiocin sensitization): 34 mg/L; MIC: concentration required to lower the MIC of novobiocin from >500 μg/mL to 1 μg/mL ([5]; Table 8, P. aureginosa (ATCC 27853)): 6 mg/L; MBC (E. coli (ATCC 25922); Table 4, E. coli (ATCC 25922)): 40 mg/L (≈ 63.8 µM); MIC (E. coli (ATCC 25922); Table 4, E. coli (ATCC 25922)): 25 mg/L (≈ 39.9 µM) |
| CCCOCCC[C@@H](C)[C@H]1CC[C@H]2[C@@H]3[C@H](OCCCN)C[C@@H]4C[C@H](OCCCN)CC[C@]4(C)[C@H]3C[C@H](OCCCN)[C@]12C [Compound 112] | 0.15 | 0.50 | 90 (≈ 148 µM) | 86 (≈ 141 µM) | 4.2 (≈ 6.91 µM) | 0.55 (≈ 0.905 µM) | 0.051 | 0.10 | 0.17 | 0.72 | 0.031 | 0.11 | 45 (≈ 74 µM) | 41 (≈ 67.4 µM) | 7.4 (≈ 12.2 µM) | 6.6 (≈ 10.9 µM) | 0.015 | 0.39 | (d) Concentration required to lower the MIC of novobiocin from >500 to 1 μg/mL (E. coli (ATCC 10798); [10]): 0.8 mg/L; FIC values with novobiocin (E. coli (ATCC 10798); [10]): 0.085 |
